Laboratory results reported in patent US20240115654A1, “INTRAVENOUS ADMINISTRATION OF ENGINEERED ANTIMICROBIAL AMPHIPHILIC PEPTIDES” (priority 2021, published 2024).
“And” between values parts separate entries of the source, which are not always exact repeats. Equal entries are not always repeated. Where two headings read alike, the source gives them in different places. Peptide text beside a SMILES is read from it.

Conditions: for increase of AUC0-t / increase of mean AUC0-24: Cohorts 1 to 3
[1] = Cohort 4, 0.5 mg/kg IV infusion 2 hours, Max
[2] = Cohort 4, 0.5 mg/kg IV infusion 2 hours, Mean
[3] = Cohort 4, 0.5 mg/kg IV infusion 2 hours, Min
[4] = Cohort 4, 0.5 mg/kg IV, infusion 2 hours, cohort Geometric Mean
[5] = Cohort 4, 0.5 mg/kg IV, infusion 2 hours, cohort Mean
[6] = Cohort 4, 0.5 mg/kg IV, infusion 2 hours, cohort Median
[7] = Cohort 5, 1 mg/kg IV infusion 4 hours, Max
[8] = Cohort 5, 1 mg/kg IV infusion 4 hours, Min
[9] = Phase 1 subjects, 1-hr IV infusion
[10] = over the 5-fold increase in dose
[11] = single 1-hour infusion 0.05 mg/kg, Geometric Mean
[12] = single 1-hour infusion 0.05 mg/kg, Max
[13] = single 1-hour infusion 0.05 mg/kg, Mean
[14] = single 1-hour infusion 0.05 mg/kg, Median
[15] = single 1-hour infusion 0.05 mg/kg, Min
[16] = single 1-hour infusion 0.05 mg/kg, individual subjects
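Also: phase 1 study in human subjects given one IV dose of the peptide, enrolled in sequential ascending-dose cohorts and randomized to peptide or placebo.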

Procedure: Administration was a single 1-hour infusion.
Subjects were enrolled in sequential cohorts of peptide ascending dose levels and randomly assigned to receive a single IV administration of either peptide or placebo over 1 to 2 hours. […] In addition, the infusion volume was adjusted for Cohort 4 to maintain drug concentrations in line with Cohort 2
Blood samples for PK assessment were collected at pre-dose, at the midpoint of infusion, within 1 minute after the end-of-infusion and at 0.5, 1, 2, 4, 6, 8, 12, 20, 24, 36 and 48 hours after the end-of-infusion.
The pharmaceutical composition was stored at 2° C. to 8° C. for up to 14 days and then 15° C. to 25° C. for up to 48 hours for dosing.
Subjects were enrolled in sequential cohorts of peptide ascending dose levels and randomly assigned to receive a single IV administration of either peptide or placebo over 1 to 2 hours.

CC(C)[C@H](NC(=O)[C@H](Cc1c[nH]c2ccccc12)NC(=O)[C@H](CCCNC(=N)N)NC(=O)[C@H](CCCNC(=N)N)NC(=O)[C@@H](NC(=O)[C@@H](NC(=O)[C@H](CCCNC(=N)N)NC(=O)[C@@H](NC(=O)[C@@H](NC(=O)[C@H](CCCNC(=N)N)NC(=O)[C@H](CCCNC(=N)N)NC(=O)[C@H](Cc1c[nH]c2ccccc12)NC(=O)[C@@H](NC(=O)[C@H](CCCNC(=N)N)NC(=O)[C@H](CCCNC(=N)N)NC(=O)[C@@H](NC(=O)[C@H](CCCNC(=N)N)NC(=O)[C@H](CCCNC(=N)N)NC(=O)[C@@H](NC(=O)[C@H](Cc1c[nH]c2ccccc12)NC(=O)[C@H](CCCNC(=N)N)NC(=O)[C@@H](N)CCCNC(=N)N)C(C)C)C(C)C)C(C)C)C(C)C)C(C)C)C(C)C)C(C)C)C(=O)N[C@@H](CCCNC(=N)N)C(=O)N[C@@H](CCCNC(=N)N)C(N)=O [SEQ ID NO: 1] (H-RRWVRRVRRVWRRVVRVVRRWVRR-NH2)
AUC(0-inf) [1]: 13500 ng·h/mL
AUC(0-t) [1]: 12200 ng·h/mL
AUCextrap [1]: 12.8%
Cmax [1]: 2310 ng/mL
t1/2 [1]: 21.1 h
AUCextrap [2]: 8.22%
CL/F [2]: 1.07 mL/min/kg
AUCextrap (Cohort 4, 0.5 mg/kg IV infusion 2 hours, Median): 8.81%
AUC0-24 [3]: 3190 ng·h/mL
AUC(0-inf) [3]: 3870 ng·h/mL
AUC(0-t) [3]: 3440 ng·h/mL
AUCextrap [3]: 3.65%
CL/F [3]: 0.615 mL/min/kg
Cmax [3]: 994 ng/mL
t1/2 [3]: 11.5 h
Plasma Concentration by Nominal Time from Start of Infusion, Mean (Cohort 4, 0.5 mg/kg IV, infusion 2 hours, 0.0 h, cohort mean N 6): 0.00 ng/mL
Plasma Concentration by Nominal Time from Start of Infusion (Cohort 4, 0.5 mg/kg IV, infusion 2 hours, 0.0 h, individual subjects): 0.00 ng/mL
Plasma Concentration by Nominal Time from Start of Infusion (Cohort 4, 0.5 mg/kg IV, infusion 2 hours, 4.0 h, individual subjects): 457 ng/mL and 502 ng/mL and 614 ng/mL
Plasma Concentration by Nominal Time from Start of Infusion (Cohort 4, 0.5 mg/kg IV, infusion 2 hours, 6.0 h, individual subjects): 249 ng/mL and 448 ng/mL and 472 ng/mL
Plasma Concentration by Nominal Time from Start of Infusion (Cohort 4, 0.5 mg/kg IV, infusion 2 hours, 8.0 h, individual subjects): 164 ng/mL and 311 ng/mL and 377 ng/mL
AUCextrap [4]: 7.38%
CL/F [4]: 0.977 mL/min/kg
Tlast [4]: 46 h
λz [4]: 0.0443 h⁻¹
AUCextrap [5]: 8.22%
CL/F [5]: 1.07 mL/min/kg
Tlast [5]: 46 h
λz [5]: 0.0457 h⁻¹
AUCextrap [6]: 8.81%
CL/F [6]: 0.892 mL/min/kg
Tlast [6]: 50 h
λz [6]: 0.0461 h⁻¹
Tlast (Cohort 4, 0.5 mg/kg IV, infusion 2 hours, individual subjects): 38 h (2×) and 50 h (4×)
Plasma Concentration by Nominal Time from Start of Infusion, Mean (Cohort 5, 1 mg/kg IV 4-hr infusion, 0.0 h, cohort mean): 0.00 ng/mL
AUCextrap (Cohort 5, 1 mg/kg IV infusion 4 hours, Geometric Mean): 8.61%
AUC0-24 [7]: 28800 ng·h/mL
AUC(0-inf) [7]: 25700 ng·h/mL
AUC(0-t) [7]: 34300 ng·h/mL
AUCextrap [7]: 17.8%
t1/2 [7]: 28.3 h
AUCextrap (Cohort 5, 1 mg/kg IV infusion 4 hours, Mean): 10.8%
AUCextrap (Cohort 5, 1 mg/kg IV infusion 4 hours, Median): 11.6%
AUC0-24 [8]: 14000 ng·h/mL
AUC(0-inf) [8]: 17400 ng·h/mL
AUC(0-t) [8]: 15800 ng·h/mL
AUCextrap [8]: 2.43%
Cmax [8]: 2030 ng/mL
t1/2 [8]: 9.59 h
AUC(0-inf) (Cohort 5, 1 mg/kg IV infusion 4 hours, individual subject): 17400 ng·h/mL and 19900 ng·h/mL and 25700 ng·h/mL
actual dose-level exposure AUC0-24 relative to that predicted from animal data [9]: 5-10 ×
actual dose-level exposure Cmax relative to that predicted from animal data [9]: about 4 ×
dose proportionality of AUC0-t (dose range 0.05 to 0.5 mg/kg, slope not significantly different from 1): increased proportionally with dose increase
intercept estimate, log AUC0-∞ versus log dose (dose range 0.05 to 1 mg/kg): 6.04
slope estimate, log AUC0-∞ versus log dose (dose range 0.05 to 1 mg/kg, 90% CI=0.78 to 1.03): 0.91
increase of AUC0-t [10]: 4.2 fold
increase of mean AUC0-24 [10]: 3.6 fold
increase of AUC0-t (over the […] increase in dose): 2.2 fold
increase of mean AUC0-24 (over the […] increase in dose): 2.0 fold
AUCextrap [11]: 8.36%
Tlast [11]: 24 h
λz [11]: 0.0946 h⁻¹
AUC0-24 [12]: 1610 ng·h/mL
AUC(0-inf) [12]: 1820 ng·h/mL
AUC(0-t) [12]: 1720 ng·h/mL
AUCextrap [12]: 12.1%
CL/F [12]: 0.595 mL/min/kg
Cmax [12]: 341 ng/mL
Tlast [12]: 37 h
t1/2 [12]: 8.59 h
λz [12]: 0.105 h⁻¹
AUCextrap [13]: 8.87%
Tlast [13]: 25 h
λz [13]: 0.095 h⁻¹
AUCextrap [14]: 8.12%
Tlast [14]: 25 h
λz [14]: 0.0951 h⁻¹
AUC0-24 [15]: 619 ng·h/mL
AUC(0-t) [15]: 515 ng·h/mL
AUCextrap [15]: 4.54%
CL/F [15]: 0.457 mL/min/kg
Cmax [15]: 170 ng/mL
Tlast [15]: 13 h
t1/2 [15]: 6.62 h
λz [15]: 0.0807 h⁻¹
AUC(0-inf) [16]: 1490 ng·h/mL and 1800 ng·h/mL and 1820 ng·h/mL
CL/F [16]: 0.562 mL/min/kg and 0.463 mL/min/kg and 0.457 mL/min/kg
Tlast [16]: 25 h (4×) and 13 h and 37 h
